According to ChEMBL document CHEMBL5576073, “Design and synthesis of novel fluorene derivatives as inhibitors of pyruvate dehydrogenase kinase” (Bioorg Med Chem Lett, 2024):
Converted amounts (≈) assume the structure as drawn. The source made the active and inactive calls. No cut-off for these calls is given here.

Legend:
[1] = Apparent permeability of compound in human Caco-2 cells; assay type: ADME, cell-based
[2] = Aqueous solubility of compound in PBS at pH 7.2; assay type: physicochemical
[3] = target: [Pyruvate dehydrogenase (acetyl-transferring)] kinase isozyme 2, mitochondrial (Homo sapiens, UniProt Q15119); assay: Inhibition of human recombinant PDHK2 assessed as residual PDH activity in presence of ATP using sodium pyruvate/Coenzyme A/thiamine pyrophosphate as substrates incubated for 90 mins by UV-transparent microplate analysis
[4] = Metabolic stability in human liver s9 fraction measured at 60 mins; assay type: ADME, subcellular; conditions: read-out: Stability
[5] = Total body clearance in Sprague-Dawley rat at 1 mg/kg, iv measured for 25 hrs by LC-MS/MS analysis; assay type: ADME, organism-based; conditions: in vivo
[6] = Cmax in Sprague-Dawley rat at 10 mg/kg, po measured for 25 hrs by LC-MS/MS analysis; assay type: ADME, organism-based; conditions: in vivo
[7] = Drug concentration in Sprague-Dawley rat at 10 mg/kg, po measured at 25 hrs by LC-MS/MS analysis; assay type: ADME, organism-based; conditions: in vivo, read-out: Drug uptake
[8] = AUC in Sprague-Dawley rat at 10 mg/kg, po measured for 25 hrs by LC-MS/MS analysis; assay type: ADME, organism-based; conditions: in vivo
Rattus norvegicus [9] = organism: Rattus norvegicus; assay: Antidiabetic activity against Sprague-Dawley rat assessed as PDH activity in liver measured at 6 hrs; assay type: functional, organism-based; conditions: dose 0.1-10 mg/kg, route po
[10] = Oral bioavailability in Sprague-Dawley rat at 10 mg/kg measured for 25 hrs by LC-MS/MS analysis; assay type: ADME, organism-based; conditions: in vivo
Rattus norvegicus [11] = assay: Antidiabetic activity against Zucker fatty rats assessed as decrease in glucose level in plasma at 10 mg/kg administered for 28 days; assay type: functional, organism-based; conditions: time 28.0 day
[12] = Volume of distribution at steady state in Sprague-Dawley rat at 1 mg/kg, iv measured for 25 hrs by LC-MS/MS analysis; assay type: ADME, organism-based; conditions: in vivo, read-out: Vdss
[13] = MRT in Sprague-Dawley rat at 1 mg/kg, iv measured for 25 hrs by LC-MS/MS analysis; assay type: ADME, organism-based; conditions: in vivo
[14] = target: [Pyruvate dehydrogenase (acetyl-transferring)] kinase isozyme 4, mitochondrial (Homo sapiens, UniProt Q16654); assay: Inhibition of PDHK4 (unknown origin)
[15] = Drug concentration in Sprague-Dawley rat at 10 mg/kg, po measured at 8 hrs by LC-MS/MS analysis; assay type: ADME, organism-based; conditions: in vivo, read-out: Drug uptake
[16] = AUC in Sprague-Dawley rat at 1 mg/kg, iv measured for 25 hrs by LC-MS/MS analysis; assay type: ADME, organism-based; conditions: in vivo

Chain of [Pyruvate dehydrogenase (acetyl-transferring)] kinase isozyme 4, mitochondrial (Q16654 whole entry): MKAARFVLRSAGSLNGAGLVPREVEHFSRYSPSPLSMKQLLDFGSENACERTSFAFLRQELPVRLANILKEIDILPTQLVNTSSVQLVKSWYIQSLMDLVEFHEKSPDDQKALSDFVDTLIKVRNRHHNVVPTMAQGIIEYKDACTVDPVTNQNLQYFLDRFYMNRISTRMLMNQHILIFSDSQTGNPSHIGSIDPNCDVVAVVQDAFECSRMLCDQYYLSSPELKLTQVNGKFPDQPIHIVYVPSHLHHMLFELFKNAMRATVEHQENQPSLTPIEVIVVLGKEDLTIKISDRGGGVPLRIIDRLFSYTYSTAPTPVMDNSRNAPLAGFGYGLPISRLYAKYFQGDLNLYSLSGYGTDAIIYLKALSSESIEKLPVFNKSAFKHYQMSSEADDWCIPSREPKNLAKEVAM

Row | Compound | Papp [1] [×10⁻⁶ cm/s] | solubility [2] [µM] | IC50 [3] [nM] | remaining at 1 h [4] [%] | other results
1 | OC1(C(F)(F)F)c2ccccc2-c2ccc(-c3ccccc3)cc21 (racemic) | 9.8 | ≤ 0.4 | – | – | –
2 | CC(C)C1(O)c2ccccc2-c2ncccc21 (racemic) | – | 94 (≈ 21.2 µg/mL) | 12000 | 97 | –
3 | O=C(c1ccc2c(c1)C(O)(C(F)(F)F)c1ccccc1-2)N1CCC1 (racemic) | 47.5 | 93 (≈ 31 µg/mL) | 170 | 49 | –
4 | Nc1nc(SCC(=O)c2ccccc2)nc2sc3c(c12)CCN(Cc1ccccc1)C3 | – | ≤ 0.3 | 1900 | 6 | –
5 | OC1(C(F)(F)F)c2ccccc2-c2ccccc21 | 56.8 | 87 (≈ 21.8 µg/mL) | 5900 | – | –
6 | O=C1CCCN1c1ccc2c(c1)C(O)(C(F)(F)F)c1ccccc1-2 (racemic) | 39.5 | 83 (≈ 27.7 µg/mL) | – | 29 | –
7 | COC(=O)c1cccc2c1-c1ccccc1C2(O)C(F)(F)F (racemic) | 17.4 | 83 (≈ 25.6 µg/mL) | 900 | – | –
8 | O=C(O)CCCOc1ccc2c(c1)C(O)(C(F)(F)F)c1ccccc1-2 (racemic) | 61.5 | ≥ 95 | – | 92 | –
9 | COC(=O)c1ccc2c(c1)C(O)(C(F)(F)F)c1ccccc1-2 (racemic) | 34.5 | 45 (≈ 13.9 µg/mL) | 600 | – | –

Now from value to compound, other results behind:

Row | Papp [1] [×10⁻⁶ cm/s] | solubility [2] [µM] | IC50 [3] [nM] | remaining at 1 h [4] [%] | Compound | other results
10 | 51.1 | 17 (≈ 5.39 µg/mL) | – | 61 | OC1(C(F)(F)F)c2ccccc2-c2c(-c3cnco3)cccc21 (racemic) | –
11 | 68 | 92 (≈ 33.2 µg/mL) | – | 94 | OCCn1cc(-c2cccc3c2-c2ccccc2C3(O)C(F)(F)F)cn1 (racemic) | –
12 | 28.4 | – | 20 | 91 | Cn1cc(-c2cc(OCCCC(=O)O)cc3c2-c2ccccc2C3(O)C(F)(F)F)cn1 (stereo not drawn) | –
13 | 63.1 | 6.9 (≈ 2.28 µg/mL) | – | 62 | Cn1cc(-c2cccc3c2-c2ccccc2C3(O)C(F)(F)F)cn1 (racemic) | –
14 | 54.3 | – | 17 | 83 | Cc1cc(-c2cnn(CCO)c2)c2c(c1)C(O)(C(F)(F)F)c1ccccc1-2 (stereo not drawn) | clearance [5]: 11.7 mL/min/kg; Cmax [6]: 4.4 µM; concentration at 25 h [7]: 200 nM; AUC at 25 h [8]: 57 µM·h; Activity (Rattus norvegicus [9]): Dose-Dependent Effect; bioavailability [10]: 140%; Activity (Rattus norvegicus [11]): Active; Vd [12]: 2.6 L/kg; MRT [13]: 3.9 h; IC50 [14]: > 1000 nM; concentration at 8 h [15]: 3.1 µM; AUC at 25 h [16]: 4.1 µM·h
15 | 48.3 | 85 (≈ 28.8 µg/mL) | – | – | OCCCCOc1ccc2c(c1)C(O)(C(F)(F)F)c1ccccc1-2 (racemic) | –
16 | 56.2 | 4.6 (≈ 1.51 µg/mL) | – | 96 | OC1(C(F)(F)F)c2ccccc2-c2c(-c3cncnc3)cccc21 (racemic) | –
17 | 51.2 | 94 (≈ 36.4 µg/mL) | – | 93 | CNC(=O)Cn1cc(-c2cccc3c2-c2ccccc2C3(O)C(F)(F)F)cn1 (racemic) | –
18 | 16.2 | ≤ 0.4 | – | 84 | CC(C)(C)Cn1cc(-c2cccc3c2-c2ccccc2C3(O)C(F)(F)F)cn1 (racemic) | –
19 | 6.5 | – | – | 94 | O=C(c1cc(-c2cnn(CCO)c2)c2c(c1)C(O)(C(F)(F)F)c1ccccc1-2)N1CCC1 (racemic) | –
20 | 18 | 0.38 (≈ 0.124 µg/mL) | – | 80 | OC1(C(F)(F)F)c2ccccc2-c2c(-c3cccnc3)cccc21 (racemic) | –
21 | 59.8 | – | 20 | 97 | OCCn1cc(-c2cc(F)cc3c2-c2ccccc2C3(O)C(F)(F)F)cn1 (stereo not drawn) | –
